Laboratory results as given in article PMC12127850 (RSC Medicinal Chemistry, 2025).
Structures can show the parent of a compound that is named as a salt. Each block holds one compound with its values, some of them ahead of it.

How the values were obtained:
Type in all cases: cell-based
[1] = target: T1, prostate-specific membrane antigen (PSMA) (Homo sapiens, UniProt Q04609); assay: blocking of […]-PSiMA uptake in LNCaP cells by […] 2-PMPA
[2] = target: T1, prostate-specific membrane antigen (PSMA); assay: in vivo PET blocking of […]-PSiMA uptake in LNCaP tumors
[3] = target: T1, prostate-specific membrane antigen (PSMA); assay: competitive displacement of […]-PSMA-1007 in PSMA-expressing LNCaP cells

T1 sequence (Q04609 whole entry): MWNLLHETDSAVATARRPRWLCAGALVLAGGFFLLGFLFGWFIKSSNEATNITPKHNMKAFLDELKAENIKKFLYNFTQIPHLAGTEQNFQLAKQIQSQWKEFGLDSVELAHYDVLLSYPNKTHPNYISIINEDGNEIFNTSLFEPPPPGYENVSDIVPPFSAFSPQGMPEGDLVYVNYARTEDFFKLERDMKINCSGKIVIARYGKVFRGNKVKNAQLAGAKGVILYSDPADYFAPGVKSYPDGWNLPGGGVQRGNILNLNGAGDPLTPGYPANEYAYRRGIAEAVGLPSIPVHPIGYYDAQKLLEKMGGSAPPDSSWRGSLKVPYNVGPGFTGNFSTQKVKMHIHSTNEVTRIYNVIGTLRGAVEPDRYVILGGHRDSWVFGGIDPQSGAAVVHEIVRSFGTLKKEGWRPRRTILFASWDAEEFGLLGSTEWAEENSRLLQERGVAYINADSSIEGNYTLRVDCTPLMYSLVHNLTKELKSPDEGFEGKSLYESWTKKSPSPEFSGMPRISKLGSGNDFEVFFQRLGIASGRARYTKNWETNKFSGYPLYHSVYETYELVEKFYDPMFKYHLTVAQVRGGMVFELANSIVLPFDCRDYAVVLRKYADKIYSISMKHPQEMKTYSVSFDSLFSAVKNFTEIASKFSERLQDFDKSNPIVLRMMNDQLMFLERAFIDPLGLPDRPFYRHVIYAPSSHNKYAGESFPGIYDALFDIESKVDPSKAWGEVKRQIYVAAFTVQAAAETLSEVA

SMILES: O=C(O)CCC(CP(=O)(O)O)C(=O)O (stereo not drawn) [2-PMPA, 2-(phosphonomethyl)pentanedioic acid]
% blocking at 1 μM [1]: 75 % blocking at 1 μM

% reduction of tumor uptake [2]: 20 ± 10 % reduction of tumor uptake
SMILES: O=C(O)CC[C@H](NC(=O)N[C@@H](CCCCNC(=O)c1ccc(F)nc1)C(=O)O)C(=O)O [DCFPyL]

SMILES: CC(C)(C)[Si](F)(c1ccc(C(=O)N[C@H](CC(=O)O)C(=O)N[C@H](CC(=O)O)C(=O)NCC[N+](C)(C)CCn2cc(CCCCCCCCC(=O)NCCCC[C@H](NC(=O)N[C@@H](CCC(=O)O)C(=O)O)C(=O)O)nn2)cc1)C(C)(C)C [compound 14, {2-[(2R)-3-Carboxy-2-[(2R)-3-carboxy-2-({4-[di-tert-butyl(fluoro)silyl]phenyl}formamido)propanamido]propanamido]ethyl}({2-[4-(8-{[(5S)-5-carboxy-5-({[(1S)-1,3-dicarboxypropyl]carbamoyl}amino)pentyl]carbamoyl}octyl)-1H-1,2,3-triazol-1-yl]ethyl})dimethylazanium trifluoroacetate]
IC50 [3]: 154 ± 47 nM
